The values that follow come from US8110570B2, “Modulators of acetyl-coenzyme A carboxylase and methods of use thereof” (Cropsolution, Inc., priority 2008, dated 2012).

As usually defined, the IC50 is the concentration at which inhibition is half-maximal.

Molecules are shown by their SMILES.

For one assay, the target named is T1, hACC2 (Homo sapiens, UniProt O00763).
T1 construct: delete amino acids 1-148 and add Met-Gly in front of Lys149 in the final product; His tag (C); made in house; host or cells: baculovirus, Sf9 insect cells
T1 sequence (O00763 149-2458 limits assumed): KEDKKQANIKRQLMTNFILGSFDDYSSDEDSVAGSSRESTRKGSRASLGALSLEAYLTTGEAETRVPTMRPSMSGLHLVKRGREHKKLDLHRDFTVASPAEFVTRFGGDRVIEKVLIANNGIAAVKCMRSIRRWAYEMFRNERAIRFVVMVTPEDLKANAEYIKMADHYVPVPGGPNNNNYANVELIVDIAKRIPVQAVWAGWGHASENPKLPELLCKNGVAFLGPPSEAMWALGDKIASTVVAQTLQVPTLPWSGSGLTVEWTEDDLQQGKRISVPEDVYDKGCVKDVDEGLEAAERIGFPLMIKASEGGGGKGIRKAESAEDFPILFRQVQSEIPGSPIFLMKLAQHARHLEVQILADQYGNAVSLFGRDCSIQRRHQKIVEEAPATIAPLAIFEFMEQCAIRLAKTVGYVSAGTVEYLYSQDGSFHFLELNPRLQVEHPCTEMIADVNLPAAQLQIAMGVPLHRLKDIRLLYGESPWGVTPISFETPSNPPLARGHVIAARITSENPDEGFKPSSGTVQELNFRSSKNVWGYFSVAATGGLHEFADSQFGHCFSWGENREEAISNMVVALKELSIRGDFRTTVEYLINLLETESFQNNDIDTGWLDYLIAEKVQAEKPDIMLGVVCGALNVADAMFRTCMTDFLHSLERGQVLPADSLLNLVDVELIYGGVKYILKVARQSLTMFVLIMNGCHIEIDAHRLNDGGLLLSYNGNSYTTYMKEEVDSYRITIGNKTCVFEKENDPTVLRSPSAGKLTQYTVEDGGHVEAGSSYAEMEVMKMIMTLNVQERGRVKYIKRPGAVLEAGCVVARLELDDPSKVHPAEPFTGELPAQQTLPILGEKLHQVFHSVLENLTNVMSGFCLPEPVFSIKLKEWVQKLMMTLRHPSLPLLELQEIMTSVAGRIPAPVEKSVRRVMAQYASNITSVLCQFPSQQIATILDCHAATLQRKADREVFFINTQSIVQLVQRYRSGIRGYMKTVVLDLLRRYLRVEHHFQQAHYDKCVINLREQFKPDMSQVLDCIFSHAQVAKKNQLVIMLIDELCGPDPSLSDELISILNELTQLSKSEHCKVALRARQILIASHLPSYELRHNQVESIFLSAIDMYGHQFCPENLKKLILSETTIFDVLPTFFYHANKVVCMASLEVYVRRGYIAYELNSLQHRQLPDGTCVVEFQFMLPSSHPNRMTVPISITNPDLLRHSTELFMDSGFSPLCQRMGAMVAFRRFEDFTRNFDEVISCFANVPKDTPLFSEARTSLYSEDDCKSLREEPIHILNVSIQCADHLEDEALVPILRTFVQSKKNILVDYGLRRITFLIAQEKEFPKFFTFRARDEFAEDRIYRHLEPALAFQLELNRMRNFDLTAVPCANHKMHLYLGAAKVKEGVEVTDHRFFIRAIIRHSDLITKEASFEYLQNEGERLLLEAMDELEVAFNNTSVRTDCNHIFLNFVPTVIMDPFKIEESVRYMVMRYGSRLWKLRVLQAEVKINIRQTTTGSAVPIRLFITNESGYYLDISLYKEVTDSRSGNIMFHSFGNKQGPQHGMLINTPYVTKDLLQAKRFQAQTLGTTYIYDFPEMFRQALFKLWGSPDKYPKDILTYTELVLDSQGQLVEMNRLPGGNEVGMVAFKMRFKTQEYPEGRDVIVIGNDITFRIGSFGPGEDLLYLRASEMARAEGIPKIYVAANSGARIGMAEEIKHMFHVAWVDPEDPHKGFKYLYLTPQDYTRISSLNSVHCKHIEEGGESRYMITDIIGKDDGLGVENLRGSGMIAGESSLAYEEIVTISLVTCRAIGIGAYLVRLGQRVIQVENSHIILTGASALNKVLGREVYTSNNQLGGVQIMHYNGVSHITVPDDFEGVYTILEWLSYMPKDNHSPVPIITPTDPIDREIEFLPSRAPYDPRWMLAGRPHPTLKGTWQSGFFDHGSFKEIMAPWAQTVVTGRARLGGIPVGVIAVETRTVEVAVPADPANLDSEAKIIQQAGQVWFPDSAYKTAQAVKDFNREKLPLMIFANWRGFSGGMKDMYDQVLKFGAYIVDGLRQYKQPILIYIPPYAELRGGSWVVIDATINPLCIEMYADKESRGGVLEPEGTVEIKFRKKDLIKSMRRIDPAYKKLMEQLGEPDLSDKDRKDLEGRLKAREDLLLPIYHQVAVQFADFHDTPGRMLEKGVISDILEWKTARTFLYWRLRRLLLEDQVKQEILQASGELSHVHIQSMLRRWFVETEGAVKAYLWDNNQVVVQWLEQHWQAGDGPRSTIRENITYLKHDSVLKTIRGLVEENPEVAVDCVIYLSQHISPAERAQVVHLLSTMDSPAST
Kind of assay: [14C]bicarbonate incorporation assay, overall ACC activity. Type of assay: biochemical. The following applies: recombinant hACC2, overall ACC activity. In a few lines: (§1)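 His-tagged full-length hACC1 or hACC2 (residues 1-148 deleted, Met-Gly added), expressed in sf9 cells with biotin and purified, were assayed by [14C]bicarbonate incorporation into acetyl-CoA. Reactions at pH 7.4 with 2 mM acetyl-CoA, 12 mM NaHCO3 and 1% DMSO were started with 2 mM ATP and run 10 min at 37° C. Acid-stable label was counted and IC50 obtained from dose-response fits.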

The next assay has as its target T2, hACC1 (Homo sapiens, UniProt Q13085).
T2 construct: PCR primers were designed for full-length hACC1 and hACC2 using GenBank submissions AY237919 and AJ575592, respectively; His tag (C); made in house; host or cells: baculovirus, Sf9 insect cells
The description is as above. Type of assay: biochemical. The following applies: recombinant hACC1, overall ACC activity. The method, boiled down: as §1

The test system of assay [1] is A2780 human ovary cancer cells. Description: MTT Cell Proliferation Assay. Type of assay: cell-based. The following applies: 72 hours, read-out: Percent of Control A2780. The method, boiled down: (§2)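 Cells seeded and grown 24 h at 37 °C, 5% CO2, then exposed to compound for 72 h. Viability read by MTT reduction (4 h) after overnight lysis/solubilization. Results expressed as percent of control versus compound concentration.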

In assay [2] the test system is MDA-MB-231 human breast cancer cells. Kind of assay: MTT Cell Proliferation Assay. As to conditions: 72 hours, read-out: Percent of Control MDA-MB-231. Type of assay: cell-based. In a few lines: as §2
In assay [3] the test system is HCT-116 human colon cancer cells. Kind of assay: MTT Cell Proliferation Assay. As to conditions: 72 hours, read-out: Percent of Control HCT-116. In kind it is cell-based. The method, boiled down:
as §2

In assay [4] the test system is beta-hydroxybutyrate levels. Description: In vivo elevation of rat serum beta-hydroxybutyrate levels. The following applies: orally at 30 mg/Kg. From the text: Determination of blood levels of ketone bodies after oral dosing of ACC inhibitors. Compounds of this invention, and salts thereof, can be evaluated for their potential as treatments for diseases caused by reduced neuronal metabolism by assessing their effects on plasma levels of beta-hydroxybutyrate. Inhibition of ACC leads to increased rates of fatty acid oxidation and therefore production of beta-hydroxybutyrate. Rats (Sprague Rats (Sprague Dawley, Charles River Laboratories, Boston, Mass.) are acclimated for at least 4 days prior to dosing. For example, animals given food and water ad libitum are treated at volume of 1.0 mL/200 g of body weight with either an aqueous solution containing 0.5% methyl cellulose (vehicle) or an aqueous solution containing 0.5% methyl cellulose containing test compound. At various times after compound administration whole blood is collected from a jugular vein catheter into lithium heparin coated tubes, mixed gently, kept on ice and centrifuged (2500×g, 15 minutes at 4° C.) within 1 hour of collection. The isolated plasma is kept frozen at −20° C. until further processing. Plasma levels of beta-hydroxybutyrate are determined using a beta-hydroxybutyrate detection kit following the manufacturer's directions (StanBio Laboratory, Boerne, Tex.). Compounds of the present invention, and salts thereof, were assessed for their ability to increase serum beta-hydroxybutyrate levels as described above.

Turning to `COc1cc(C(=O)N2CCC3(CC2)NC(=O)c2cc(Br)ccc2O3)nc2c(OC)cccc12` [Compound 2, 6-Bromo-1′-[(4,8-dimethoxyquinoline-2-yl)carbonyl]spiro[2H-1,3-benzoxazine-2,4′-piperidine]-4(3H)-one], the figures for the IC50 at hACC2 and at hACC1 were 51 nM and 88 nM, respectively.
On to `COc1ccc2c(c1)C(=O)NC1(CCN(C(=O)c3cc(OC)c4cccc(OC)c4n3)CC1)O2` [Compound 150], for which the IC50 at hACC2 came to 23 nM; at hACC1, 26 nM. Besides, the values for the activity at 3.3 µM in assay [1], in assay [2] and in assay [3] were 86.5%, 76.1% and 70.2%, respectively. For the same compound, the activity at 10 µM in assay [1] stood at 57.6%; in assay [2] it was 50.2%; in assay [3], 59.4%. Also, the “Average beta-Hydroxybutyrate Concentration” value in assay [4] (15 min) turned out to be 0.160 mM; in assay [4] (30 min), 0.214 mM; in assay [4] (60 min) it was 0.147 mM; in assay [4] (120 min), 0.140 mM; in assay [4] (240 min), 0.102 mM.
For `COc1cc(C(=O)N2CCC3(CC2)NC(=O)c2cc(OC(C)C)ccc2O3)nc2c(OC)cccc12` [Compound 169], the values for the half-inhibitory concentration (IC50) on hACC2 and at hACC1 were 7.4 nM and 7.5 nM, respectively. The activity at 3.3 µM in assay [1] was determined as 80.5%; in assay [2], 81.4%; in assay [3], 57.2%. Besides, the activity at 10 µM in assay [1] stood at 56.5%; in assay [2] it was 47.8%; in assay [3], 45%. For the same compound, the “Average beta-Hydroxybutyrate Concentration” value in assay [4] (15 min) was 0.149 mM; in assay [4] (30 min), 0.201 mM; in assay [4] (60 min), 0.135 mM; in assay [4] (120 min) it was 0.126 mM; in assay [4] (240 min), 0.118 mM.
